Data taken from patent publication US8278304B2, “Substituted 4-hydroxypyrimidine-5-carboxamides” (Merck Sharp & Dohme Corp., priority 2008, dated 2012).
Counter-ions that a name gives are not always drawn.

Target: T1, PHD2 (Homo sapiens, UniProt Q9GZT9)
T1 construct: FLAG-tagged full length PHD2 expressed in and purified from baculovirus-infected Sf9 cells; FLAG; made in house; host or cells: baculovirus-infected Sf9 cells
Test: PHD2 / HIF-1α peptide hydroxylation assay, time resolved fluorescence (VHL complex detection)
Format: biochemical
Settings: FLAG-tagged full length PHD2; 0.2 μM 2-oxoglutarate, 0.5 μM HIF-1α peptide; read-out: PHD2 Activity (PHD2 binding activity expressed as IC50 (nM))
Description: To each well of a 96-well plate was added 1 μL of test compound in DMSO and 20 μl of assay buffer (50 mM Tris pH 7.4/0.01% Tween-20/0.1 mg/ml bovine serum albumin/10 μM ferrous sulfate/1 mM sodium ascorbate/20 μg/ml catalase) containing 0.15 μg/ml FLAG-tagged full length PHD2 expressed in and purified from baculovirus-infected Sf9 cells. After a 30 min preincubation at room temperature, the enzymatic reactions were initiated by the addition of 4 μL of substrates (final concentrations of 0.2 μM 2-oxoglutarate and 0.5 μM HIF-1α peptide biotinyl-[…]).

T1 sequence (Q9GZT9 whole entry): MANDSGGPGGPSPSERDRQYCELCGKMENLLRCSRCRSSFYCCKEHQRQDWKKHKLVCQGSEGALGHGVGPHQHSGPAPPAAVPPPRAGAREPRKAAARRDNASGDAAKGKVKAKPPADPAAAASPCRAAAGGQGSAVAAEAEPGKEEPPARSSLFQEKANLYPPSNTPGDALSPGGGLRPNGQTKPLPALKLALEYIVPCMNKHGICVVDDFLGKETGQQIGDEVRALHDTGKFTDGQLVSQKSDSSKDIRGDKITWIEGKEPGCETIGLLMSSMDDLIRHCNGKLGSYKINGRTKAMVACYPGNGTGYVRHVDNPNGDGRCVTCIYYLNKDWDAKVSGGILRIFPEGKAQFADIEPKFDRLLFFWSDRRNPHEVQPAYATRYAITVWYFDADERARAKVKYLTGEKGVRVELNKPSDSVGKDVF

SMILES	IC50 [nM]
COc1ccc(C(NC(=O)c2cnc(-c3cccnn3)nc2O)c2cccc(C)n2)c(OC)c1 (centres unmarked) [Example 115, N-[(2,4-Dimethoxyphenyl)(6-methylpyridin-2-yl)methyl]-4-hydroxy-2-pyridazin-3-ylpyrimidine-5-carboxamide]	≤ 10
COc1ccc(C(NC(=O)c2cnc(-c3cccnn3)nc2O)c2ccc(OC)nc2)cc1 (single isomer, unassigned) [Example 190]	≤ 10
CC(C)(NC(=O)c1cnc(-n2cccn2)nc1O)c1ccc(C(F)(F)F)nc1 [Example 74, 4-Hydroxy-N-{1-methyl-1-[6-(trifluoromethyl)pyridin-3-yl]ethyl}-2-(1H-pyrazol-1-yl)pyrimidine-5-carboxamide]	≤ 10
COc1ccc(C(NC(=O)c2cnc(-c3cccnn3)nc2O)c2ccc(OC)cc2C)c(C)c1 [Example 175, N-[bis(4-methoxy-2-methylphenyl)methyl]-4-hydroxy-2-(pyridazin-3-yl)pyrimidine-5-carboxamide]	≤ 10
COCc1ccc(C(NC(=O)c2cnc(-c3cccnn3)nc2O)c2ccc(COC)cc2)cc1 [Example 184, N-{bis[4-(methoxymethyl)phenyl]methyl}-4-hydroxy-2-pyridazin-3-ylpyrimidine-5-carboxamide]	≤ 10
O=C(NC(c1ccc(O)cc1)c1ccc(O)cc1)c1cnc(-c2cccnn2)nc1O [Example 6, N-[bis(4-hydroxyphenyl)methyl]-4-hydroxy-2-ylpyridazin-3-ylpyrimidine-5-carboxamide]	≤ 10
COc1ccc(C(NC(=O)c2cnc(-c3cccnn3)nc2O)c2nc3ccccc3s2)cc1 (centres unmarked) [Example 173, N-[1,3-benzothiazol-2-yl(4-methoxyphenyl)methyl]-4-hydroxy-2-(pyridazin-3-yl)pyrimidine-5-carboxamide]	≤ 10
C[C@@H](NC(=O)[C@H](NC(=O)c1cnc(-n2cccn2)nc1O)c1ccccc1)c1ccccc1 [Example 180, 4-Hydroxy-N-((1R)-2-oxo-1-phenyl-2-{[(1R)-1-phenylethyl]amino}ethyl)-2-(1H-pyrazol-1-yl)pyrimidine-5-carboxamide]	10 to 100
C[C@H](NC(=O)c1cnc(-c2cccnn2)nc1O)c1ccc2c(c1)OCCO2 [Example 140, N-[(1S)-1-(2,3-dihydro-1,4-benzodioxin-6-yl)ethyl]-4-hydroxy-2-(pyridazin-3-yl)pyrimidine-5-carboxamide]	≤ 10
C[C@H](NC(=O)c1cnc(-n2cccn2)nc1O)C1CCCCC1 [Example 85, N-[(1S)-1-cyclohexylethyl]-4-hydroxy-2-(1H-pyrazol-1-yl)pyrimidine-5-carboxamide]	10 to 100
Cc1nc(-c2ncc(C(=O)NCc3ccc(-c4ccccc4)cc3)c(O)n2)cs1 [Example 30, N-(biphenyl-4-ylmethyl)-4-hydroxy-2-(2-methyl-1,3-thiazol-4-yl)pyrimidine-5-carboxamide]	10 to 100
COc1ccc(C(NC(=O)c2cnc(-c3cccnn3)nc2O)c2ccc(O)cc2)cc1 (single isomer, unassigned) [Example 157, 4-hydroxy-N-[(4-hydroxyphenyl)(4-methoxyphenyl)methyl]-2-(pyridazin-3-yl)pyrimidine-5-carboxamide]	≤ 10
O=C(NN1CCCCC1)c1cnc(-n2cccn2)nc1O [Example 80, 4-hydroxy-N-piperidin-1-yl-2-(1H-pyrazol-1-yl)pyrimidine-5-carboxamide trifluoroacetate (salt)]	10 to 100
COc1ccc(C(NC(=O)c2cnc(-c3cccnn3)nc2O)c2ccc(O)cc2)cc1 (single isomer, unassigned) [Example 156, 4-hydroxy-N-[(4-hydroxyphenyl)(4-methoxyphenyl)methyl]-2-(pyridazin-3-yl)pyrimidine-5-carboxamide]	≤ 10
O=C(NCc1cnc(Cl)cn1)c1cnc(-n2cccn2)nc1O [Example 64, N-[(5-chloropyrazin-2-yl)methyl]-4-hydroxy-2-(1H-pyrazol-1-yl)pyrimidine-5-carboxamide]	10 to 100
Cc1nc(-c2ncc(C(=O)NCc3cccc(-c4ccccc4)c3)c(O)n2)cs1 [Example 42, N-(biphenyl-3-ylmethyl)-4-hydroxy-2-(2-methyl-1,3-thiazol-4-yl)pyrimidine-5-carboxamide]	10 to 100
Cc1nc(-c2ncc(C(=O)NCc3ccc(OC(F)(F)F)cc3)c(O)n2)cs1 [Example 31, 4-Hydroxy-2-(2-methyl-1,3-thiazol-4-yl)-N-[4-(trifluoromethoxy)benzyl]pyrimidine-5-carboxamide]	100 to 1000
COc1ccc(CC(NC(=O)c2cnc(-c3cccnn3)nc2O)c2ccc(C#N)cc2)cc1 (single isomer, unassigned) [Example 161, N-[1-(4-cyanophenyl)-2-(4-methoxyphenyl)ethyl]-4-hydroxy-2-(pyridazin-3-yl)pyrimidine-5-carboxamide]	≤ 10
O=C(c1cnc(-n2cccn2)nc1O)N1CCCCC1 [Example 81, 5-(Piperidin-1-ylcarbonyl)-2-(1H-pyrazol-1-yl)pyrimidin-4-ol]	1000 to 10000
O=C(NCc1ccc(F)cc1)c1cnc(-c2ccccn2)nc1O [Example 7, N-(4-fluorobenzyl)-4-hydroxy-2-pyridin-2-ylpyrimidine-5-carboxamide]	100 to 1000
O=C(N[C@H](c1ccccc1)[C@H](O)c1ccccc1)c1cnc(-c2cccnn2)nc1O [Example 139, 4-hydroxy-N-[(1R,2R)-2-hydroxy-1,2-diphenylethyl]-2-(pyridazin-3-yl)pyrimidine-5-carboxamide]	≤ 10
Cc1ccccc1Oc1ccc(CNC(=O)c2cnc(-n3cccn3)nc2O)cc1 [Example 100, 4-hydroxy-N-[4-(2-methylphenoxy)benzyl]-2-(1H-pyrazol-1-yl)pyrimidine-5-carboxamide]	≤ 10
O=C(NC(c1ccccc1)c1ccccc1)c1cnc(-c2ccc[nH]2)nc1O [Example 45, N-(diphenylmethyl)-4-hydroxy-2-(1H-pyrrol-2-yl)pyrimidine-5-carboxamide]	100 to 1000
Cc1cccc(-c2ncc(C(=O)Nc3ccc(F)cc3Cl)c(O)n2)n1 [Example 16, N-(2-chloro-4-fluorophenyl)-4-hydroxy-2-(6-methylpyridin-2-yl)pyrimidine-5-carboxamide]	1000 to 10000
COc1ccc(C(NC(=O)c2cnc(-c3cccnn3)nc2O)c2ccc(C#N)cc2)cc1 (single isomer, unassigned) [Example 150, N-[(4-cyanophenyl)(4-methoxyphenyl)methyl]-4-hydroxy-2-(pyridazin-3-yl)pyrimidine-5-carboxamide]	≤ 10
CC(O)c1ccc(C(NC(=O)c2cnc(-c3cccnn3)nc2O)c2ccc(Cl)cc2)cc1 (centres unmarked) [Example 179, N-{(4-chlorophenyl)[4-(1-hydroxyethyl)phenyl]methyl}-4-hydroxy-2-(pyridazin-3-yl)pyrimidine-5-carboxamide]	≤ 10

Second part, the compound after the results:

IC50 [nM]	SMILES
≤ 10	O=C(NCc1cccc(-c2ccccc2)c1)c1cnc(-n2cccn2)nc1O [Example 53, N-(biphenyl-3-ylmethyl)-4-hydroxy-2-(1H-pyrazol-1-yl)pyrimidine-5-carboxamide]
≤ 10	O=C(NC(Cc1ccccc1)c1ccccc1)c1cnc(-n2cccn2)nc1O (centres unmarked) [Example 67, N-(1,2-diphenylethyl)-4-hydroxy-2-(1H-pyrazol-1-yl)pyrimidine-5-carboxamide]
10 to 100	Cc1ccc(CNC(=O)c2cnc(-n3cccn3)nc2O)cc1 [Example 77, 4-Hydroxy-N-(4-methylbenzyl)-2-(1H-pyrazol-1-yl)pyrimidine-5-carboxamide]
≤ 10	O=C(NCc1ccc(-c2ccccc2F)nc1)c1cnc(-n2cccn2)nc1O [Example 106, N-{[6-(2-fluorophenyl)pyridin-3-yl]methyl}-4-hydroxy-2-(1H-pyrazol-1-yl)pyrimidine-5-carboxamide]
1000 to 10000	O=C(O)CNC(=O)c1cnc(-n2cccn2)nc1O [Example 104, N-{[4-hydroxy-2-(1H-pyrazol-1-yl)pyrimidin-5-yl]carbonyl}glycine]
10 to 100	O=C(NCc1cccc2ccccc12)c1cnc(-n2cccn2)nc1O [Example 56, 4-Hydroxy-N-(1-naphthylmethyl)-2-(1H-pyrazol-1-yl)pyrimidine-5-carboxamide]
≤ 10	CC(C)(NC(=O)c1cnc(-n2cccn2)nc1O)c1ccc(Br)cc1 [Example 92, N-[1-(4-bromophenyl)-1-methylethyl]-4-hydroxy-2-(1H-pyrazol-1-yl)pyrimidine-5-carboxamide]
≤ 10	C[C@H](NC(=O)c1cnc(-n2cccn2)nc1O)c1ccc(C#N)cc1 [Example 113, N-[(1S)-1-(4-cyanophenyl)ethyl]-4-hydroxy-2-(1H-pyrazol-1-yl)pyrimidine-5-carboxamide]
≤ 10	O=C(NC1(c2ccccc2)CCCCC1)c1cnc(-n2cccn2)nc1O [Example 94, 4-hydroxy-N-(1-phenylcyclohexyl)-2-(1H-pyrazol-1-yl)pyrimidine-5-carboxamide]
≤ 10	O=C(NCc1ccc(C(F)(F)F)cc1)c1cnc(-n2cccn2)nc1O [Example 54, 4-Hydroxy-2-(1H-pyrazol-1-yl)-N-[4-(trifluoromethyl)benzyl]pynmidine-5-carboxamide]
≤ 10	O=C(NCc1ccc(Cl)cc1Cl)c1cnc(-n2cccn2)nc1O [Example 51, N-(2,4-dichlorobenzyl)-4-hydroxy-2-(1H-pyrazol-1-yl)pyrimidine-5-carboxamide]
10 to 100	O=C(NC1CCc2ccccc21)c1cnc(-n2cccn2)nc1O (centres unmarked) [Example 57, N-(2,3-dihydro-1H-inden-1-yl)-4-hydroxy-2-(1H-pyrazol-1-yl)pyrimidine-5-carboxamide]
